Test results published in US8765684B2, “Solid materials of {[(2S,5R,8S,11S)-5-benzyl-11-(3-guanidino-propyl)-8-isopropyl-7-methyl-3,6,9,12,15-pentaoxo-1,4,7,10,13-pentaaza-cyclopentadec-2-yl]-acetic acid} and methods for obtaining them” (Merck Patent GmbH, priority 2009, dated 2014).
“And” between values parts separate entries of the source, which are not always exact repeats. Equal entries are not always repeated.

Experiments:
[1] = Conditioning of amorphous Cilengitide under mixed water-ethanol atmospheres (stoichiometry by KF, HS-GC, NMR); assay type: physicochemical
From the text: Stoichiometries as determined by Karl-Fischer titration (KF) for quantification of water and head space gas-chromatography (HS-GC) (and nuclear magnetic resonance spectroscopy (NMR)) for quantification of ethanol are depicted in Table 3. In the table also points representing stochiometries with more than 4 molecules of water per molecule of Cilengitide are visible. As there is no space for more than 4 molecules of water in the crystal lattice excess amounts of more than 4 molecules of water represent adsorbed moisture.
Also the modifications and the lattice parameters from indexing of the diffractograms are compiled in Table 3.

[2] = assay type: physicochemical
Procedure: In the respective dynamic vapor sorption experiments discussed in more detail herein using ethanol vapor at 98% relative saturation for the Dihydrate-diethanolate/crystalline form S2 at 25° C. starting with the tetrahydrate a mass gain of 17% has been obtained. This is in good agreement with the above shown results for the tetraethanolate (calculated 117.0%, i.e. 17.0% of mass gain). Preferably, the tetrasolvates according to the invention, more preferably the Dihydrate-diethanolate, the Dihydrate-ethanolate, the Dihydrate-monoethanolate, the Diethanolate and/or the desolvates thereof, and especially the crystalline form S2 can be characterised, alternatively or additionally, by dynamic vapour experiments using water vapour and/or methanol vapour. The results can be obtained by standard techniques as described in Rolf Hilfiker, ‘Polymorphism in the Pharmaceutical Industry’, Wiley-VCH. Weinheim 2006 (Chapter 9: Water Vapour Sorption, and references therein). […] Upon water vapour adsorption, an assembly of water molecules in the lattice is observed, with a maximum weight gain of approx. 6.4 wt % at elevated rh. In the second desorption cycle a total mass loss of approx. 9.2 wt % is observed. For a Dihydrate Di-Ethanolate of the compound of formula I, the calculated Ethanol content equals 12.5 wt %. […] Thus, crystalline form S2 is a crystalline Ethanol solvate form or a mixed water/ethanol solvate form, preferably selected from the Dihydrate-ethanolate, the Dihydrate-monoethanolate, the Diethanolate and/or the desolvates thereof, which can be obtained e.g. via Ethanol Vapour Sorption, preferably via Ethanol Vapour Sorption starting with a hydrate structure, such as the hydrates according to the invention and especially the tetrahydrate according to the invention, i.e. crystalline form S3. From the Ethanol Vapour Sorption curve as shown in FIG. 21 and as discussed above, it can be seen that at elevated Ethanol partial pressure, approx. 17 wt % Ethanol are taken up by the sample.

[3] = per 1 mol Cil, EtOH liquid phase 10 v %
[4] = per 1 mol Cil, EtOH liquid phase 20 v %
[5] = per 1 mol Cil, EtOH liquid phase 50 v %
[6] = per 1 mol Cil, EtOH liquid phase 70 v %
[7] = per 1 mol Cil, EtOH liquid phase 80 v %
[8] = per 1 mol Cil, EtOH liquid phase 85 v %
[9] = per 1 mol Cil, EtOH liquid phase 90 v %
[10] = per 1 mol Cil, EtOH liquid phase 95 v %
[11] = per 1 mol Cil, EtOH liquid phase 100 v %

With “cyclo-(Arg-Gly-Asp-DPhe-NMe-Val) [crystalline form S2]” the “EtOH HS-GC” value ([1]; EtOH liquid phase 10 v %) was 3.2 wt %, the “H2O KF” value ([1]; EtOH liquid phase 10 v %) was 9.5 wt % and the “Σ TG” value ([1]; EtOH liquid phase 10 v %) was 12.5 wt %. For the same substance, the “EtOH HS-GC” value ([1]; EtOH liquid phase 20 v %) was 4.3 wt %, the “H2O KF” value ([1]; EtOH liquid phase 20 v %) was 8.4 wt % and the “Σ TG” value ([1]; EtOH liquid phase 20 v %) was 13.0 wt %. The “EtOH HS-GC” value ([1]; EtOH liquid phase 50 v %) was 6.9 wt % and 6.2 wt %, the “H2O KF” value ([1]; EtOH liquid phase 50 v %) was 7.8 wt % and 6.8 wt % and the “Σ TG” value ([1]; EtOH liquid phase 50 v %) was 13.7 wt % and 12.6 wt %. For the same substance, the “EtOH HS-GC” value ([1]; EtOH liquid phase 70 v %) was 6.4 wt %, the “H2O KF” value ([1]; EtOH liquid phase 70 v %) was 6.2 wt % and the “Σ TG” value ([1]; EtOH liquid phase 70 v %) was 12.4 wt %. For the same substance, the “EtOH HS-GC” value ([1]; EtOH liquid phase 80 v %) was 6.7 wt %, the “H2O KF” value ([1]; EtOH liquid phase 80 v %) was 5.9 wt % and the “Σ TG” value ([1]; EtOH liquid phase 80 v %) was 12.8 wt %. The “EtOH HS-GC” value ([1]; EtOH liquid phase 85 v %) was 9.1 wt %, the “H2O KF” value ([1]; EtOH liquid phase 85 v %) was 4.1 wt % and the “Σ TG” value ([1]; EtOH liquid phase 85 v %) was 12.9 wt %. For the same substance, the “EtOH HS-GC” value ([1]; EtOH liquid phase 90 v %) was 12.5 wt %, the “H2O KF” value ([1]; EtOH liquid phase 90 v %) was 1.7 wt % and 1.2 wt % and the “Σ TG” value ([1]; EtOH liquid phase 90 v %) was 13.8 wt % and 13.6 wt %. For the same substance, the “EtOH HS-GC” value ([1]; EtOH liquid phase 95 v %) was 13.1 wt %, the “H2O KF” value ([1]; EtOH liquid phase 95 v %) was 0.4 wt % and the “Σ TG” value ([1]; EtOH liquid phase 95 v %) was 13.7 wt %. For the same substance, the “EtOH HS-GC” value ([1]; EtOH liquid phase 100 v %) was 13.6 wt %, the “H2O KF” value ([1]; EtOH liquid phase 100 v %) was 0.7 wt % and the “Σ TG” value ([1]; EtOH liquid phase 100 v %) was 14.0 wt %. The “EtOH HS-GC” value [1, 3] was 0.5 mol, the “EtOH NMR” value [1, 3] was 0.5 mol and the “H2O KF” value [1, 3] was 3.6 mol. For the same substance, the “EtOH HS-GC” value [1, 4] was 0.6 mol, the “EtOH NMR” value [1, 4] was 0.7 mol and the “H2O KF” value [1, 4] was 3.1 mol. For the same substance, the “EtOH HS-GC” value [1, 5] was 1.0 mol and 0.9 mol, the “EtOH NMR” value [1, 5] was 1.0 mol and the “H2O KF” value [1, 5] was 3.0 mol and 2.5 mol. For the same substance, the “EtOH HS-GC” value [1, 6] was 0.9 mol, the “H2O KF” value [1, 6] was 2.3 mol and the “EtOH HS-GC” value [1, 7] was 1.0 mol. The “H2O KF” value [1, 7] was 2.2 mol, the “EtOH HS-GC” value [1, 8] was 1.3 mol and the “H2O KF” value [1, 8] was 1.5 mol. The “EtOH HS-GC” value [1, 9] was 1.9 mol, the “H2O KF” value [1, 9] was 0.6 mol and 0.5 mol and the “EtOH HS-GC” value [1, 10] was 1.9 mol. The “H2O KF” value [1, 10] was 0.2 mol, the “EtOH HS-GC” value [1, 11] was 2.0 mol and the “EtOH NMR” value [1, 11] was 2.0 mol. For the same substance, the “H2O KF” value [1, 11] was 0.3 mol, the “Thermodynamic stability of the form” value [2] was “thermodynamically stable form” and the “Ethanol taken up by the sample” value ([2]; elevated Ethanol partial pressure, starting with a hydrate structure) was “approx. 17 wt %”. For the same substance, the Mass gain ([2]; ethanol vapor at 98% relative saturation, 25° C., starting with the tetrahydrate) was 17%.
